Reference: patent US20260294915A1, “COMBINATION THERAPY COMPRISING A MAT2A INHIBITOR AND A TOPOISOMERASE INHIBITOR, A SPLICING INHIBITOR SULFONAMIDE, OR A KIF18 INHIBITOR” (IDEAYA BIOSCIENCES, INC., priority 2023, published 2026)
Read-outs that look alike come from different tables or passages of the source. Marks after values point to notes of the source that are not given here.

Columns and labels:
Assay type in all cases: cell-based
UMUC11 = experiment: 10-day proliferation (CTG), equimolar Compound A + SPLAM (Example 4); details: single agent or 1:1 combo; for IC50: read-out: gIC50; for IC80: read-out: gIC80; for IC90: read-out: gIC90
Protocol: (§1) A 10-day proliferation assay was performed in a panel of 5 MTAP-deficient and 2 wild type non-small cell lung and bladder cancer cell lines. Optimal cell seeding for all cell lines was determined by assessing the growth over a range of seeding densities in a 384-well format to identify conditions that permitted proliferation for 10 days. Cells were then plated at the optimal seeding density and treated with 20-point, two-fold dilution series of Compound A, the splicing inhibitor sulfonamide (SPLAM), or an equimolar combination of Compound A and the SPLAM. Combinations tested included Compound A in combination with four structurally different SPLAMs. Concentrations tested for Compound A and each SPLAM alone or in combination ranged from 0.04 nM to 20,000 nM. A plate of cells was harvested at the time of compound addition to quantify the number of cells at the start of the combination (T0). For cell quantification, the harvested cells were lysed with Promega CellTiter-Glo (CTG) reagent according to the manufacturer's protocol and the chemiluminescent signal was detected on a Synergy Neo plate reader. CTG estimates cell number through detection of cellular ATP levels. Cells were incubated with the drug combinations at 37° C. with 5% CO2 for 10 days. Cells were then lysed with CTG and the chemiluminescent signal was measured.
(§2) CTG values obtained after the 10-day treatment were background subtracted and expressed as a percent of the T0 value. Data were plotted against compound concentration and fit with a four-parameter equation to generate dose response curves for each single agent and the equimolar combination. Growth ICx (gICx) values ranging from gIC30 to gIC100 were interpolated from the fitted curves. Synergistic growth inhibition was assessed by determination of Combination Index (CI) values at these various points across the titration using the mutually non-exclusive equation [Chou, 1983; Chou, 1981] shown below where A equals the gICx value of Compound A, B equals the gICx value of the SPLAM, and A+B or B+A equals the gICx value of the equimolar combination. A Combination Index value less than 1.0 was considered synergistic.

UMUC5 = experiment: as above; details: single agent or 1:1 combo; for IC50: read-out: gIC50; for IC80: read-out: gIC80; for IC90: read-out: gIC90
Protocol: as §1, §2

NCI-H838 = experiment: 10-day proliferation (CTG), SPLAM titration + 1000 nM Compound A, Bliss (Example 5; Tables 12-19); set-up: key: GDI scale -100 to 100; 0 = cell number at T0; <0 cytotoxic
Protocol: Synergy was measured across the Indisulam titration with 1000 nM Compound A by Bliss Independence analysis. Bliss scores >10 are indicated by “*” and are considered synergistic. […] Synergy as reported using Bliss may be underrepresented within cytotoxic dose ranges. Growth death index values are shown for the combination titration and each single agent Compound A (Cmpd A) and Indisulam on a scale of −100 to 100 with the midpoint (0) being the number of cells at the beginning of the combination (T0). Scores less than 0 are indicated with “**” and are representative of a cytotoxic response. Bliss and GDI values are shown for five MTAP-deficient cell lines: NCI-1H838 (12A), SW900 (12B), RT112/84 (12C), UMUC5 (121D), and UMUC11 (12E).
A 10-day proliferation assay was performed in a panel of 5 MTAP-deficient and 2 wild type non-small cell lung and bladder cancer cell lines. Optimal cell seeding for all cell lines was determined by assessing the growth over a range of seeding densities in a 384-well format to identify conditions that permitted proliferation for 10 days. Cells were then plated at the optimal seeding density and treated with 20-point, two-fold dilution series of each of four structurally different SPLAMs in combination with a 1000 nM fixed concentration of Compound A. Single agent titrations for Compound A and each SPLAM were included for comparison. Concentrations tested for each SPLAM alone or in combination ranged from 0.04 nM to 20,000 nM. A plate of cells was harvested at the time of compound addition to quantify the number of cells at the start of the combination (T0). For cell quantification, the harvested cells were lysed with Promega CellTiter-Glo (CTG) reagent according to the manufacturer's protocol and the chemiluminescent signal was detected as described in Example 1 above. Cells were incubated with the drug combinations at 37° C. with 5% CO2 for 10 days. Cells were then lysed with CTG and the chemiluminescent signal was measured.
CTG values obtained after the 10-day treatment were background subtracted and expressed as a percent of the T0 value set at 100%. Data were plotted against compound concentration and fit with a four-parameter equation to generate single agent dose response curves. Percent inhibition was determined for each combination and single agent concentration compared to a DMSO control. In addition, the overall net growth or death of the cells was calculated and reported as a growth death index (GDI) value on a scale of −100 to 100 with the midpoint (0) being the number of cells at the beginning of the combination (T0).
Predicted inhibition was calculated using (Ea+Eb)−(Ea*Eb) where E equals the effect (inhibition) of each single agent (a and b). A difference between the observed inhibition percentage and the predicted inhibition percentage greater than 10% was considered synergistic. A Bliss score was only reported for combinations eliciting >20% growth inhibition (GDI value <80). Since Bliss is calculated based on growth inhibition, scores within cytotoxic dose ranges may not accurately reflect synergistic cytoxicity.
Synergy was measured across the E7820 titration with 1000 nM Compound A by Bliss Independence analysis. Bliss scores >10 are indicated by “*” and are considered synergistic. […] Synergy as reported using Bliss may be underrepresented within cytotoxic dose ranges. Growth death index values are shown for the combination titration and each single agent Compound A (Cmpd A) and Indisulam on a scale of −100 to 100 with the midpoint (0) being the number of cells at the beginning of the combination (T0). Scores less than 0 are indicated by “**” and are representative of a cytotoxic response. Bliss and GDI values are shown for five MTAP-deficient cell lines: NCI-1H838 (14A), SW900 (14B), RT112/84 (14C), UMUC5 (141)), and UMUC11 (14E).
Synergy was measured across the Chloroquinoxaline Sulfonamide titration with 1000 nM Compound A by Bliss Independence analysis.

[1] = SPLAM 0.04 nM, alone or + 1 uM Cmpd A
[2] = SPLAM 0.1 nM, alone or + 1 uM Cmpd A
[3] = SPLAM 0.2 nM, alone or + 1 uM Cmpd A
[4] = SPLAM 0.3 nM, alone or + 1 uM Cmpd A
[5] = SPLAM 0.6 nM, alone or + 1 uM Cmpd A
[6] = SPLAM 1.2 nM, alone or + 1 uM Cmpd A
[7] = SPLAM 2.4 nM, alone or + 1 uM Cmpd A
[8] = SPLAM 4.9 nM, alone or + 1 uM Cmpd A
[9] = SPLAM 9.8 nM, alone or + 1 uM Cmpd A
[10] = SPLAM 19.5 nM, alone or + 1 uM Cmpd A
[11] = SPLAM 39.1 nM, alone or + 1 uM Cmpd A
[12] = SPLAM 78.1 nM, alone or + 1 uM Cmpd A
[13] = SPLAM 156.3 nM, alone or + 1 uM Cmpd A
[14] = SPLAM 312.5 nM, alone or + 1 uM Cmpd A
[15] = SPLAM 625 nM, alone or + 1 uM Cmpd A
[16] = SPLAM 1250 nM, alone or + 1 uM Cmpd A
[17] = SPLAM 2500 nM, alone or + 1 uM Cmpd A
[18] = SPLAM 5000 nM, alone or + 1 uM Cmpd A
[19] = SPLAM 10000 nM, alone or + 1 uM Cmpd A
[20] = SPLAM 20000 nM, alone or + 1 uM Cmpd A

SMILES: Nc1nc(=O)n(-c2ccccc2Cl)c2nc(C(F)(F)F)ccc12 [Compound A]
- IC50 (UMUC11; 240 h, 10 days): 20000 nM
- gIC30 (UMUC11; 10 days): 20 µM
- gIC40 (UMUC11; 10 days): 20 µM
- gIC60 (UMUC11; 10 days): 20 µM
- gIC70 (UMUC11; 10 days): 20 µM
- gIC100 (UMUC11; 10 days): 20 µM
- gIC30 (UMUC11): 20 µM
- gIC40 (UMUC11): 20 µM
- gIC60 (UMUC11): 20 µM
- gIC70 (UMUC11): 20 µM
- gIC100 (UMUC11): 20 µM
- IC50 (UMUC11): 20000 nM
- IC50 (UMUC5; 240 h, 10 days): 4280 nM
- gIC30 (UMUC5; 10 days): 420 nM
- gIC40 (UMUC5; 10 days): 1291 nM
- gIC60 (UMUC5; 10 days): 13.142 µM
- gIC70 (UMUC5; 10 days): 20 µM
- gIC100 (UMUC5; 10 days): 20 µM
- gIC30 (UMUC5): 420 nM
- gIC40 (UMUC5): 1291 nM
- gIC60 (UMUC5): 13.142 µM
- gIC70 (UMUC5): 20 µM
- gIC100 (UMUC5): 20 µM
- IC50 (UMUC5): 4280 nM
- GDI (growth death index), single agent Cmpd A (NCI-H838; NCI-H838, 1000 nM Compound A, Table 18A): 49
- GDI (NCI-H838; single agent Cmpd A, 1000 nM): 49

SMILES: Cc1ccc(NS(=O)(=O)c2cccc(C#N)c2)c2[nH]cc(C#N)c12 [Compound E7820, 3-cyano-N-(3-cyano-4-methyl-1H-indol-7-yl)benzenesulfonamide]
- IC50 (UMUC11; 240 h, 10 days): 452 nM
- gIC30 (UMUC11; 10 days): 0.361 µM
- gIC40 (UMUC11; 10 days): 0.404 µM
- gIC60 (UMUC11; 10 days): 0.511 µM
- gIC70 (UMUC11; 10 days): 0.589 µM
- gIC100 (UMUC11; 10 days): 20 µM
- IC80 (UMUC11; 10 days): 713 nM
- IC90 (UMUC11; 10 days): 1010 nM
- IC50 (UMUC5; 240 h, 10 days): 460 nM
- gIC30 (UMUC5; 10 days): 330 nM
- gIC40 (UMUC5; 10 days): 390 nM
- gIC60 (UMUC5; 10 days): 0.547 µM
- gIC70 (UMUC5; 10 days): 0.673 µM
- gIC100 (UMUC5; 10 days): 20 µM
- IC80 (UMUC5; 10 days): 900 nM
- IC90 (UMUC5; 10 days): 1900 nM
- GDI (NCI-H838; [1]): 100
- GDI (NCI-H838; [2]): 100
- GDI (NCI-H838; [3]): 100
- GDI (NCI-H838; [4]): 100
- GDI (NCI-H838; [5]): 100
- GDI (NCI-H838; [6]): 100
- GDI (NCI-H838; [7]): 100
- GDI (NCI-H838; [8]): 100
- GDI (NCI-H838; [9]): 100
- GDI (NCI-H838; [10]): 100
- GDI (NCI-H838; [11]): 100
- GDI (NCI-H838; [12]): 100
- GDI (NCI-H838; [13]): 100
- GDI (NCI-H838; [14]): 76
- GDI (NCI-H838; [15]): 13
- GDI (NCI-H838; [16]): 4
- GDI (NCI-H838; [17]): 1
- GDI (NCI-H838; [18]): −13**
- GDI (NCI-H838; [19]): −64**
- GDI (NCI-H838; [20]): −46**

SMILES: NS(=O)(=O)c1ccc(S(=O)(=O)Nc2cccc3c(Cl)c[nH]c23)cc1 [Indisulam, N-(3-chloro-1H-indol-7-yl)benzene-1,4-disulfonamide]
- IC50 (UMUC11; 240 h, 10 days): 472 nM
- gIC30 (UMUC11; 10 days): 0.369 µM
- gIC40 (UMUC11; 10 days): 0.417 µM
- gIC60 (UMUC11; 10 days): 0.539 µM
- gIC70 (UMUC11; 10 days): 0.628 µM
- gIC100 (UMUC11; 10 days): 20 µM
- IC80 (UMUC11; 10 days): 769 nM
- IC90 (UMUC11; 10 days): 1110 nM
- IC50 (UMUC5; 240 h, 10 days): 420 nM
- gIC30 (UMUC5; 10 days): 310 nM
- gIC40 (UMUC5; 10 days): 363 nM
- gIC60 (UMUC5; 10 days): 0.487 µM
- gIC70 (UMUC5; 10 days): 0.574 µM
- gIC100 (UMUC5; 10 days): 20 µM
- IC80 (UMUC5; 10 days): 707 nM
- IC90 (UMUC5; 10 days): 990 nM
- GDI (NCI-H838; [1]): 100
- GDI (NCI-H838; [2]): 100
- GDI (NCI-H838; [3]): 100
- GDI (NCI-H838; [4]): 100
- GDI (NCI-H838; [5]): 100
- GDI (NCI-H838; [6]): 100
- GDI (NCI-H838; [7]): 100
- GDI (NCI-H838; [8]): 100
- GDI (NCI-H838; [9]): 100
- GDI (NCI-H838; [10]): 100
- GDI (NCI-H838; [11]): 100
- GDI (NCI-H838; [12]): 100
- GDI (NCI-H838; [13]): 100
- GDI (NCI-H838; [14]): 54
- GDI (NCI-H838; [15]): 11
- GDI (NCI-H838; [16]): 2
- GDI (NCI-H838; [17]): 1
- GDI (NCI-H838; [18]): −13**
- GDI (NCI-H838; [19]): −50**
- GDI (NCI-H838; [20]): −52**
